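Protocol summary: plate cells (96-well), add compound at 5 concentrations, incubate 48 h, interpolate endpoints linearly. GI50: concentration for 50% inhibition of growth. TGI: concentration producing complete growth inhibition.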
How the values were obtained:
Test in all cases: NCI anticancer screen, dose series, 48 h
MALME-3M melanoma = test system: MALME-3M melanoma
SNB-19 CNS = test system: SNB-19 CNS
M14 melanoma = test system: M14 melanoma
HOP-62 NSCLC = test system: HOP-62 NSCLC
HCT-15 colon = test system: HCT-15 colon
SNB-75 CNS = test system: SNB-75 CNS
HT29 colon = test system: HT29 colon
DU-145 prostate = test system: DU-145 prostate
BT-549 breast = test system: BT-549 breast
HS 578T breast = test system: HS 578T breast

Compound | TGI (MALME-3M melanoma) | TGI (SNB-19 CNS) | TGI (M14 melanoma) | TGI (HOP-62 NSCLC) | TGI (HCT-15 colon) | TGI (SNB-75 CNS) | TGI (HT29 colon) | GI50 (MALME-3M melanoma) | GI50 (SNB-19 CNS) | GI50 (M14 melanoma) | GI50 (HOP-62 NSCLC) | GI50 (HCT-15 colon) | GI50 (SNB-75 CNS) | GI50 (DU-145 prostate) | TGI (DU-145 prostate) | GI50 (BT-549 breast) | TGI (BT-549 breast) | GI50 (HT29 colon) | TGI (HS 578T breast) | GI50 (HS 578T breast)
O=c1c2c(-c3ccccc3)c3ccccc3nc2cnn1-c1ccccc1 | > 100 µM | > 100 µM | > 100 µM | > 100 µM | > 100 µM | > 100 µM | > 100 µM | – | – | – | – | – | – | – | – | – | – | – | – | –
COc1cccc(-c2cc(=O)c3cc4c(cc3[nH]2)OCO4)c1 | > 67.6 µM | > 45.1 µM | 2.95 µM | 21.9 µM | 8.25 µM | 0.245 µM | 2.37 µM | – | – | – | – | – | – | – | – | – | – | – | – | –
ClCc1cccc(Cn2cnc3c(Cl)nc(Cl)nc32)c1 | 4.47 µM | 4.17 µM | 3.41 µM | 4.38 µM | 6.84 µM | 3.89 µM | > 100 µM | 2.02 µM | 1.96 µM | 1.79 µM | 2.29 µM | 2.41 µM | 2.04 µM | 1.59 µM | 2.98 µM | 1.69 µM | 3.23 µM | 2.39 µM | – | –
N=c1c2ccccc2sc2nc3ccccc3n12 | > 100 µM | > 100 µM | – | > 100 µM | – | – | > 100 µM | – | – | – | – | – | – | – | – | – | – | – | – | –
OC1=CN=COc2ccccc21 | > 100 µM | > 100 µM | > 100 µM | > 100 µM | > 100 µM | > 100 µM | > 100 µM | – | – | – | – | – | – | – | – | – | – | – | – | –
CN(C)N1C(=O)SCC(c2ccccc2)(c2ccccc2)C1=O | > 100 µM | > 100 µM | > 100 µM | > 100 µM | > 100 µM | > 100 µM | > 100 µM | – | – | – | – | – | – | – | > 100 µM | – | – | – | > 100 µM | –
COc1cc(OC)c2sc(-c3ccc(-n4cncc4-c4ccc(OC)c(OC)c4)cc3)nc2c1 | > 100 µM | > 100 µM | > 100 µM | > 100 µM | > 100 µM | 46 µM | > 100 µM | 59.9 µM | > 100 µM | > 100 µM | 35.5 µM | > 100 µM | 7.21 µM | 27.9 µM | > 100 µM | 9.12 µM | > 100 µM | 7.13 µM | – | –
C=C1C(=O)C23[C@H](O)C1CC[C@H]2[C@]12COC3(O)[C@@H](O)[C@@H]1C(C)(C)CC[C@@H]2O | 6.94 µM | 32.7 µM | 18.5 µM | 36.1 µM | 15.9 µM | 38.7 µM | 36.6 µM | – | – | – | – | – | – | – | – | – | – | – | – | –
O=C1/C(=C\c2ccco2)Oc2ccccc21 | – | > 100 µM | > 100 µM | > 100 µM | > 100 µM | > 100 µM | > 100 µM | – | – | – | – | – | – | – | > 100 µM | – | > 100 µM | – | > 100 µM | –
CC(=O)c1ccc(NC(=O)C(=O)C(C(=O)/C=C/c2ccccc2)C2OC(=O)c3ccccc32)cc1 (configuration not stated) | > 100 µM | > 100 µM | > 100 µM | > 100 µM | > 100 µM | > 100 µM | > 100 µM | – | – | – | – | – | – | – | – | – | – | – | – | –
CC(=O)OC(C(=O)[O][Sn]([CH3])([CH3])[CH3])c1ccccc1 (configuration not stated) | > 100 µM | > 100 µM | > 100 µM | > 100 µM | > 100 µM | > 100 µM | > 100 µM | > 100 µM | > 100 µM | > 100 µM | > 100 µM | > 100 µM | > 100 µM | – | – | – | – | > 100 µM | – | –
CCOc1ccc(N=C(NC(=O)c2ccccc2)SC)cc1 | > 100 µM | > 100 µM | > 100 µM | > 100 µM | > 100 µM | > 100 µM | > 100 µM | – | – | – | – | – | – | – | – | – | – | – | – | –
COC/N=C(\NC#N)NCOC | > 100 µM | > 100 µM | > 100 µM | > 100 µM | > 59.4 µM | > 100 µM | > 100 µM | – | – | – | – | – | – | – | – | – | – | – | – | –
COc1ccccc1-c1cc(=O)c2cc(C)c(C)c(C(=O)O)c2o1 | > 100 µM | > 100 µM | > 100 µM | > 100 µM | > 100 µM | > 100 µM | > 100 µM | – | – | – | – | – | – | – | – | – | – | – | – | –
COc1ccc(/C=C(\NC(=O)c2ccccc2)c2nc3ccccc3[nH]2)cc1OC | > 100 µM | > 100 µM | > 100 µM | > 100 µM | > 100 µM | > 100 µM | > 100 µM | – | – | – | – | – | – | – | – | – | – | – | – | –
CC(C)(C)NCC(O)COc1c(Br)c(Br)c(Br)c2c1OC(C)(C)C2 (configuration not stated) | 3.24 µM | – | 3.66 µM | 3.7 µM | 3.4 µM | – | 2.75 µM | 1.71 µM | – | 1.81 µM | 1.89 µM | 1.89 µM | – | 1.51 µM | 2.84 µM | 1.69 µM | 3.11 µM | 1.34 µM | – | –
CCOc1ccc(N=C2NC(=O)C(CC(=O)Nc3ccccc3[N+](=O)[O-])S2)cc1 (configuration not stated) | > 100 µM | > 100 µM | > 100 µM | – | > 100 µM | > 100 µM | > 100 µM | – | – | – | – | – | – | – | – | – | – | – | – | –
O=C1CCC2(c3ccccc3)Nc3ccccc3N12 (configuration not stated) | > 100 µM | – | > 100 µM | > 100 µM | > 100 µM | > 100 µM | > 100 µM | – | – | – | – | – | – | – | – | – | – | – | – | –
Cc1cc(NCc2cc(Nc3ccnc4cc(Cl)ccc34)ccc2F)nc(N2CCOCC2)n1 | – | 54.4 µM | – | – | – | 2.79 µM | 5.68 µM | – | 3.79 µM | – | – | – | 1.32 µM | 3.2 µM | 12.5 µM | – | – | 2.21 µM | 6.97 µM | 2.07 µM
CCOc1cccc2c1N[S@@](=O)S2 | > 100 µM | > 100 µM | > 100 µM | – | > 100 µM | > 100 µM | > 100 µM | – | – | – | – | – | – | – | – | – | – | – | – | –
CO[C@H]1/C=C/O[C@@]2(C)Oc3c(C)c(O)c4c(O)c(c(/C=N/N5CCN(C)CC5)c(O)c4c3C2=O)NC(=O)/C(C)=C\C=C\[C@H](C)[C@H](O)[C@@H](C)[C@@H](O)[C@@H](C)[C@H](OC(C)=O)[C@@H]1C | > 100 µM | – | > 100 µM | > 100 µM | – | – | > 100 µM | – | – | – | – | – | – | – | > 100 µM | – | > 100 µM | – | – | –
CCC1=CCN(c2cc(C)ccn2)OC1c1ccccc1 (configuration not stated) | 80.8 µM | > 100 µM | > 100 µM | > 100 µM | > 100 µM | > 100 µM | > 100 µM | – | – | – | – | – | – | – | – | – | – | – | – | –
COc1cc2c(c3c1c(=O)c1ccccc1n3C)C=CC(C)(C)O2 | > 100 µM | > 100 µM | > 100 µM | > 100 µM | > 100 µM | > 100 µM | > 100 µM | – | – | – | – | – | – | – | – | – | – | – | – | –
